Measurements reported in patent US20070010671A1, “Novel quinazoline derivatives and methods of treatment related to the use thereof” (priority 2003, published 2007).
pIC50: −log10 of the molar value.

target: MCH receptor (Homo sapiens, UniProt Q99705); test: High throughput functional screening FLIPR/FDSS6000: inhibition of MCH-evoked intracellular Ca2+ changes; assay type: cell-based; conditions: class by percent of control at 10^-7 M or IC50
In short: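 Antagonism was measured as inhibition of calcium responses to 50 nM MCH, monitored 290 s at ex 488/em 530 nm on FLIPR or FDSS6000. Beforehand, cells bearing a constitutively active MCH receptor received Fluo4-AM (4 μM, 1 h, 37 °C) with probenecid, and test compound for 3 min.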

| SMILES | class |
| --- | --- |
| COC(=O)c1sccc1NC(=S)N[C@H]1CC[C@@H](Nc2nc(N(C)C)c3ccccc3n2)CC1 [compound 382] | 1 (Class 1: The value of percent of control at 10^−7 M was less than 40% or the value of IC50 was less than 50 nM.) |
| CN(C)c1nc(N[C@H]2CC[C@@H](NC(=S)Nc3ccccc3-c3ccccc3)CC2)nc2ccccc12 [compound 297, N-biphenyl-2-yl-N′-(cis-4-{[4-(dimethylamino)quinazolin-2-yl]amino}cyclohexyl)thiourea] | 1 (Class 1: The value of percent of control at 10^−7 M was less than 40% or the value of IC50 was less than 50 nM.) |
| CN(C)c1nc(N[C@H]2CC[C@@H](CNC(=O)Nc3c(Br)cc(F)cc3Br)CC2)nc2ccccc12 [compound 482, N-(2,6-dibromo-4-fluorophenyl)-N′-[(cis-4-{[4-(dimethylamino)quinazolin-2-yl]amino}cyclohexyl)methyl]urea] | 1 (Class 1: The value of percent of control at 10^−7 M was less than 40% or the value of IC50 was less than 50 nM.) |
| Cc1ccc(NC(=S)NC[C@H]2CC[C@@H](Nc3nc(N(C)C)c4ccccc4n3)CC2)c([N+](=O)[O-])c1 [compound 703] | 3 (Class 3: The value of percent of control at 10^−7 M was more than 60% or the value of IC50 was more than 200 nM.) |
| Cc1ccc(CNC(=S)N[C@H]2CC[C@@H](Nc3nc(N(C)C)c4ccccc4n3)CC2)cc1 [compound 280] | 3 (Class 3: The value of percent of control at 10^−7 M was more than 60% or the value of IC50 was more than 200 nM.) |
| CN(C)c1nc(N[C@H]2CC[C@@H](CNC(=O)Nc3ccc4c(c3)C(F)(F)OC(F)(F)O4)CC2)nc2ccccc12 [compound 755, N-[(cis-4-{[4-(dimethylamino)quinazolin-2-yl]amino}-cyclohexyl)methyl]-N′-(2,2,4,4,-tetrafluoro-4H-1,3-benzodioxin-6-yl)urea] | 3 (Class 3: The value of percent of control at 10^−7 M was more than 60% or the value of IC50 was more than 200 nM.) |
| C#CCNC(=S)NC[C@H]1CC[C@@H](Nc2nc(N(C)C)c3ccccc3n2)CC1 [compound 777] | 3 (Class 3: The value of percent of control at 10^−7 M was more than 60% or the value of IC50 was more than 200 nM.) |

same assay, conditions: class by percent of control at 10^-7 M or by IC50; read-out: class

| SMILES | pIC50 |
| --- | --- |
| COc1cc(NC(=O)N[C@H]2CC[C@@H](Nc3nc(N(C)C)c4ccccc4n3)CC2)cc(OC)c1OC [compound 121, N-(cis-4-{[4-(dimethylamino)quinazolin-2-yl]amino}cyclohexyl)-N′-(3,4,5-trimethoxyphenyl)urea] | > 7.30 |
| CN(C)c1nc(N[C@H]2CC[C@@H](CNC(=S)NCCN3CCOCC3)CC2)nc2ccccc12 [compound 808] | < 6.70 |
| CN(C)c1nc(N[C@H]2CC[C@@H](NC(=O)NCc3ccccc3F)CC2)nc2ccccc12 [compound 100, N-(cis-4-{[4-(dimethylamino)quinazolin-2-yl]amino}cyclohexyl)-N′-(2-fluorobenzyl)urea] | > 7.30 |
| CN(C)c1nc(N[C@H]2CC[C@@H](NC(=S)Nc3cccc([N+](=O)[O-])c3)CC2)nc2ccccc12 [compound 188] | < 6.70 |
| CN(C)c1nc(N[C@H]2CC[C@@H](NC(=S)Nc3cccc(Br)c3)CC2)nc2ccccc12 [compound 157, N-(3-bromopheny)-N′-(cis-4-{[4-(dimethylamino)quinazolin-2-yl]amino}cyclohexyl)thiourea] | < 6.70 |

same assay, conditions: class by percent of control at 10^−7 M or by IC50; read-out: class

| SMILES | pIC50 |
| --- | --- |
| CN(C)c1nc(N[C@H]2CC[C@@H](NC(=O)[C@@H](O)c3ccccc3Cl)CC2)nc2ccccc12 [Example 1114, (2S)-2-(2-chlorophenyl)-N-(cis-4-{[4-(dimethylamino)quinazolin-2-yl]amino}cyclohexyl)-2-hydroxyacetamide] | > 7.30 |
| CN(C)c1nc(N[C@H]2CC[C@@H](NC(=O)C(O)c3ccc(Cl)cc3)CC2)nc2ccccc12 (relative stereo) [Example 1106, 2-(4-chlorophenyl)-N-(cis-4-{[4-(dimethylamino)quinazolin-2-yl]amino}cyclohexyl)-2-hydroxyacetamide] | 6.70 to 7.30 |
